According to patent US20120077802A1 (SUNOVION PHARMACEUTICALS INC., priority 2009, published 2012):

Each molecule was assayed against T1, human histamine H3 receptor (Homo sapiens, UniProt Q9Y5N1) (assay: H3 GTPγS assay (SPA method), histamine H3 in vitro assay). Details: GTPγ[35S] SPA, membranes of cells expressing human H3 receptor; in one embodiment HCl salts tested; read-out: Potency (functional potency as indicated by IC50).
T1 construct: host or cells: cells expressing the human H3 receptor
T1 sequence (Q9Y5N1 whole entry): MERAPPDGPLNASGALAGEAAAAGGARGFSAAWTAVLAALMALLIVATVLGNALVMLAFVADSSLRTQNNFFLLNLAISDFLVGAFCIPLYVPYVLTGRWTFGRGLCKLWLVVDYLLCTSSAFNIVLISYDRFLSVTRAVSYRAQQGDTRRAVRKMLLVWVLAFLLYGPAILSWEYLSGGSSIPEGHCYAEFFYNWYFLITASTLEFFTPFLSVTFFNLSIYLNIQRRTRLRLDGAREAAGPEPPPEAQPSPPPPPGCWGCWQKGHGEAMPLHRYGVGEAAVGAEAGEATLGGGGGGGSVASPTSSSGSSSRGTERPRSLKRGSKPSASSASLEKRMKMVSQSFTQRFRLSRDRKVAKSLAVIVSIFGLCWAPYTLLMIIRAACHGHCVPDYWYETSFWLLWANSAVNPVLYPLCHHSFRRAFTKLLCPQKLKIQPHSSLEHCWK
Format: biochemical
Description: H3 GTPγS assay (SPA method) was performed at EuroScreen (Belgium, ES-392-C) using conventional methods. Briefly, cells expressing the human histamine H3 receptor were homogenized in 15 mM Tris-HCl pH 7.5, 2 mM MgCl2, 0.3 mM EDTA, and 1 mM EGTA. Membranes were washed twice in the above tris buffer, collected by centrifugation (40,000×g, 25 min), and re-suspended in 75 mM Tris-HCl pH 7.5, 12.5 mM MgCl2, 0.3 mM EDTA, 1 mM EGTA, and 250 mM sucrose. Membranes were frozen in liquid nitrogen until use. On the day of the assay, membranes were thawed and diluted in assay buffer (20 mM HEPES pH 7.4, 100 mM NaCl, 10 μg/ml saponin, 1 mM MgCl2) to give 500 μg/ml and mixed (v/v) with GDP in assay buffer for a final GDP concentration of 10 μM and incubated on ice for at least 15 min. PVT-WGA beads (Amersham, RPNQ001) were diluted in assay buffer at 50 mg/mL and mixed with GTPγ[^35S] (Amersham, SJ1308) diluted in assay buffer to give ˜25,000 dpm/10 μL, and mixed vol/vol just before the start of the reaction. The reaction was started by adding 50 μL of test compound, 20 μL of the membranes:GDP mix, 10 μL of buffer, and 20 μL of the GTPγ[^35S]:beads mix in a 96 well plate Optiplate™ (PerkinElmer, 6005299) covered with topseal (TopCount™, PerkinElmer), mixed with an orbital shaker for 2 min, incubated for 1 hour at room temperature, centrifuged for 10 min at 2000 rpm, incubated for 1 h at room temperature, and counted for 1 min in a TopCount™ reader (PerkinElmer). Dose response curves and IC50 values (concentration to inhibit the reaction by 50%) were calculated by nonlinear regression using XLfit software (IDBS).
For antagonists testing, 10 μL of a reference agonist (R-γ-Me-Histamine) instead of 10 μL buffer was added at a concentration corresponding to the EC80 (30 nM). Control ligands were R-γ-Me-Histamine (Tocris, 0569), Imetit (Sigma, I-135), Thioperamide (Tocris, 0644), and Clobenpropit (Tocris, 0754) diluted in assay buffer.
The compounds provided herein were tested in the histamine H3 in vitro assay. In one embodiment, the respective HCl salts of the compounds provided herein were prepared using standard chemical procedures and tested in the histamine H3 in vitro assay.

Compound	IC50 [nM]
CN1CCC(N2CCC3(CC2)Cc2cc(Br)ccc2O3)CC1 [Compound 24, 5-Bromo-1′-(1-methylpiperidin-4-yl)-3H-spiro[benzofuran-2,4′-piperidine]]	≤ 1000
CC(C1CCC1)N1CCC2(CC1)Cc1cc(Br)ccc1O2 (stereo not shown) [Compound 25, 5-Bromo-1′-(1-cyclobutylethyl)-3H-spiro[benzofuran-2,4′-piperidine]]	≤ 1000
c1cc2c(cc1-c1cn[nH]c1)CC1(CCN(C3CCC3)CC1)O2 [Compound 27, 1′-Cyclobutyl-5-(1H-pyrazol-4-yl)-3H-spiro[benzofuran-2,4′-piperidine]]	≤ 100
COc1ccnc(-c2ccc3c(c2)CC2(CCN(C4CCC4)CC2)O3)n1 [Compound 28, 1′-Cyclobutyl-5-(4-methoxypyrimidin-2-yl)-3H-spiro[benzofuran-2,4′-piperidine]]	≤ 100
c1cc2c(cc1N1CCCCC1)CC1(CCN(C3CCC3)CC1)O2 [Compound 34, 1′-Cyclobutyl-5-(piperidin-1-yl)-3H-spiro[benzofuran-2,4′-piperidine]]	≤ 100
N#Cc1ccc(-c2ccc3c(c2)OC2(CCN(C4CCC4)CC2)C3)cc1 [Compound 35, 4-(1′-Cyclobutyl-3H-spiro[benzofuran-2,4′-piperidine]-6-yl)benzonitrile]	≤ 100
CN1CCN(c2ccc3c(c2)OC2(CCN(C4CCC4)CC2)C3)CC1 [Compound 38, 1′-Cyclobutyl-6-(4-methylpiperazin-1-yl)-3H-spiro[benzofuran-2,4′-piperidine]]	≤ 100
c1cc2c(cc1CN1CCCC1)OC1(CCN(C3CCC3)CC1)C2 [Compound 45, 1′-Cyclobutyl-6-(pyrrolidin-1-ylmethyl)-3H-spiro[benzofuran-2,4′-piperidine]]	≤ 100
N#Cc1ccc(NCc2ccc3c(c2)OC2(CCN(C4CCC4)CC2)C3)cc1 [Compound 46, 4-((1′-Cyclobutyl-3H-spiro[benzofuran-2,4′-piperidine]-6-yl)methylamino)benzonitrile]	≤ 100
Brc1ccc2c(c1)CC1(CCCN(C3CCC3)CC1)O2 (stereo not shown) [Compound 47, 5′-Bromo-1-cyclobutyl-3′H-spiro[azepane-4,2′-benzofuran]]	≤ 1000
c1ccc2c(c1)ncn2-c1ccc2c(c1)CC1(CCCN(C3CCC3)CC1)O2 (stereo not shown) [Compound 50, 5′-(1H-Benzo[d]imidazol-1-yl)-1-cyclobutyl-3′H-spiro[azepane-4,2′-benzofuran]]	≤ 10
c1cc2c(cc1N1CCCCC1)CC1(CCCN(C3CCC3)CC1)O2 (stereo not shown) [Compound 51, 1-Cyclobutyl-5′-(piperidin-1-yl)-3′H-spiro[azepane-4,2′-benzofuran]]	≤ 100
c1cc2c(cc1-c1ccc3cncn3c1)CC1(CCN(C3CCC3)CC1)O2 [Compound 57, 1′-Cyclobutyl-5-(imidazo[1,5-a]pyridin-6-yl)-3H-spiro[benzofuran-2,4′-piperidine]]	≤ 10
c1cc2nc(-c3ccc4c(c3)CC3(CCN(C5CCC5)CC3)O4)cnc2[nH]1 [Compound 58, 1′-Cyclobutyl-5-(5H-pyrrolo[2,3-b]pyrazin-2-yl)-3H-spiro[benzofuran-2,4′-piperidine]]	≤ 10
c1cc2ncc(-c3ccc4c(c3)CC3(CCN(C5CCC5)CC3)O4)cc2[nH]1 [Compound 59, 1′-Cyclobutyl-5-(1H-pyrrolo[3,2-b]pyridin-6-yl)-3H-spiro[benzofuran-2,4′-piperidine]]	≤ 10
c1cc2ncc(-c3ccc4c(c3)CC3(CCN(C5CCC5)CC3)O4)cc2o1 [Compound 60, 1′-Cyclobutyl-5-(furo[3,2-b]pyridin-6-yl)-3H-spiro[benzofuran-2,4′-piperidine]]	≤ 10
c1cc2c(cc1-c1cnc3[nH]ncc3c1)CC1(CCN(C3CCC3)CC1)O2 [Compound 64, 1′-Cyclobutyl-5-(1H-pyrazolo[3,4-b]pyridin-5-yl)-3H-spiro[benzofuran-2,4′-piperidine]]	≤ 10

Further lines, results first:

IC50 [nM]	Compound
≤ 1000	Brc1ccc2c(c1)CC1(CCN(C3CCC3)CC1)O2 [Compound 23, 5-Bromo-1′-cyclobutyl-3H-spiro[benzofuran-2,4′-piperidine]]
≤ 10	c1cnc(-c2ccc3c(c2)CC2(CCN(C4CCC4)CC2)O3)cn1 [Compound 29, 1′-Cyclobutyl-5-(pyrazin-2-yl)-3H-spiro[benzofuran-2,4′-piperidine]]
≤ 10	c1cn(-c2ccc3c(c2)CC2(CCN(C4CCC4)CC2)O3)cn1 [Compound 31, 1′-Cyclobutyl-5-(1H-imidazol-1-yl)-3H-spiro[benzofuran-2,4′-piperidine]]
≤ 10	c1ccc2c(c1)ncn2-c1ccc2c(c1)CC1(CCN(C3CCC3)CC1)O2 [Compound 32, 5-(1H-Benzo[d]imidazol-1-yl)-1′-cyclobutyl-3H-spiro[benzofuran-2,4′-piperidine]]
≤ 10	CN1CCN(c2ccc3c(c2)CC2(CCN(C4CCC4)CC2)O3)CC1 [Compound 33, 1′-Cyclobutyl-5-(4-methylpiperazin-1-yl)-3H-spiro[benzofuran-2,4′-piperidine]]
≤ 100	COc1ccnc(-c2ccc3c(c2)OC2(CCN(C4CCC4)CC2)C3)n1 [Compound 36, 1′-Cyclobutyl-6-(4-methoxypyrimidin-2-yl)-3H-spiro[benzofuran-2,4′-piperidine]]
≤ 100	c1cnc(-c2ccc3c(c2)OC2(CCN(C4CCC4)CC2)C3)cn1 [Compound 37, 1′-Cyclobutyl-6-(pyrazin-2-yl)-3H-spiro[benzofuran-2,4′-piperidine]]
≤ 10	CN(C)Cc1ccc2c(c1)CC1(CCN(C3CCC3)CC1)O2 [Compound 39, 1-(1′-Cyclobutyl-3H-spiro[benzofuran-2,4′-piperidine]-5-yl)-N,N-dimethylmethanamine]
≤ 100	N#Cc1ccc(NCc2ccc3c(c2)CC2(CCN(C4CCC4)CC2)O3)cc1 [Compound 42, 4-((1′-Cyclobutyl-3H-spiro[benzofuran-2,4′-piperidine]-5-yl)methylamino)benzonitrile]
≤ 100	CN(C)Cc1ccc2c(c1)OC1(CCN(C3CCC3)CC1)C2 [Compound 43, 1-(1′-Cyclobutyl-3H-spiro[benzofuran-2,4′-piperidine]-6-yl)-N,N-dimethylmethanamine]
≤ 100	c1cc2c(cc1CN1CCOCC1)OC1(CCN(C3CCC3)CC1)C2 [Compound 44, 1′-Cyclobutyl-6-(morpholinomethyl)-3H-spiro[benzofuran-2,4′-piperidine]]
≤ 10	N#Cc1ccc(-c2ccc3c(c2)CC2(CCCN(C4CCC4)CC2)O3)cc1 (stereo not shown) [Compound 48, 4-(1-Cyclobutyl-3′H-spiro[azepane-4,2′-benzofuran]-5′-yl)benzonitrile]
≤ 100	c1cn2cc(-c3ccc4c(c3)CC3(CCCN(C5CCC5)CC3)O4)ccc2n1 (stereo not shown) [Compound 49, 1-Cyclobutyl-5′-(imidazo[1,2-a]pyridin-6-yl)-3′H-spiro[azepane-4,2′-benzofuran]]
≤ 10	Cc1cn2cc(-c3ccc4c(c3)CC3(CCN(C5CCC5)CC3)O4)ccc2n1 [Compound 54, 1′-Cyclobutyl-5-(2-methylimidazo[1,2-a]pyridin-6-yl)-3H-spiro[benzofuran-2,4′-piperidine]]
≤ 100	c1cc2cc(-c3ccc4c(c3)CC3(CCN(C5CCC5)CC3)O4)cnc2[nH]1 [Compound 55, 1′-Cyclobutyl-5-(1H-pyrrolo[2,3-b]pyridin-5-yl)-3H-spiro[benzofuran-2,4′-piperidine]]
≤ 10	c1cc2nc(-c3ccc4c(c3)CC3(CCN(C5CCC5)CC3)O4)ccc2[nH]1 [Compound 56, 1′-Cyclobutyl-5-(1H-pyrrolo[3,2-b]pyridin-5-yl)-3H-spiro[benzofuran-2,4′-piperidine]]
≤ 10	Cn1cnc2cc(-c3ccc4c(c3)CC3(CCN(C5CCC5)CC3)O4)cnc21 [Compound 61, 1′-Cyclobutyl-5-(3-methyl-3H-imidazo[4,5-b]pyridin-6-yl)-3H-spiro[benzofuran-2,4′-piperidine]]
≤ 10	c1nc2ccc(-c3ccc4c(c3)CC3(CCN(C5CCC5)CC3)O4)cn2n1 [Compound 62, 5-([1,2,4]Triazolo[1,5-a]pyridin-6-yl)-1′-cyclobutyl-3H-spiro[benzofuran-2,4′-piperidine]]
≤ 10	c1cc2c(cc1-c1ccc3nncn3c1)CC1(CCN(C3CCC3)CC1)O2 [Compound 63]

Same assay, conditions: histamine H3 in vitro assay; read-out: IC50 values

IC50 [nM]	Compound
> 1000	Brc1ccc2c(c1)CC1(CCN(Cc3c[nH]cn3)CC1)O2 [Compound 26, 1′-((1H-Imidazol-4-yl)methyl)-5-bromo-3H-spiro[benzofuran-2,4′-piperidine]]
